Laboratory results from BindingDB's records for doi:10.1016/s0960-894x(98)00738-0 (Cubist Pharmaceuticals, 1999).

What was measured:
[1] = target: Isoleucine--tRNA ligase (Escherichia coli) (UniProt P00956); assay: Inhibition of Escherichia coli isoleucyl-tRNA synthetase
[2] = target: Leucine--tRNA ligase (Escherichia coli) (UniProt P07813); assay: Compound tested for the inhibition of Escherichia coli Leucyl-tRNA synthetase
[3] = target: Alanine--tRNA ligase (Escherichia coli) (UniProt P00957); assay: Compound tested for the inhibition of Escherichia coli Alanine-tRNA synthetase
Sequence of Alanine--tRNA ligase (Escherichia coli) (P00957 whole entry, looked up): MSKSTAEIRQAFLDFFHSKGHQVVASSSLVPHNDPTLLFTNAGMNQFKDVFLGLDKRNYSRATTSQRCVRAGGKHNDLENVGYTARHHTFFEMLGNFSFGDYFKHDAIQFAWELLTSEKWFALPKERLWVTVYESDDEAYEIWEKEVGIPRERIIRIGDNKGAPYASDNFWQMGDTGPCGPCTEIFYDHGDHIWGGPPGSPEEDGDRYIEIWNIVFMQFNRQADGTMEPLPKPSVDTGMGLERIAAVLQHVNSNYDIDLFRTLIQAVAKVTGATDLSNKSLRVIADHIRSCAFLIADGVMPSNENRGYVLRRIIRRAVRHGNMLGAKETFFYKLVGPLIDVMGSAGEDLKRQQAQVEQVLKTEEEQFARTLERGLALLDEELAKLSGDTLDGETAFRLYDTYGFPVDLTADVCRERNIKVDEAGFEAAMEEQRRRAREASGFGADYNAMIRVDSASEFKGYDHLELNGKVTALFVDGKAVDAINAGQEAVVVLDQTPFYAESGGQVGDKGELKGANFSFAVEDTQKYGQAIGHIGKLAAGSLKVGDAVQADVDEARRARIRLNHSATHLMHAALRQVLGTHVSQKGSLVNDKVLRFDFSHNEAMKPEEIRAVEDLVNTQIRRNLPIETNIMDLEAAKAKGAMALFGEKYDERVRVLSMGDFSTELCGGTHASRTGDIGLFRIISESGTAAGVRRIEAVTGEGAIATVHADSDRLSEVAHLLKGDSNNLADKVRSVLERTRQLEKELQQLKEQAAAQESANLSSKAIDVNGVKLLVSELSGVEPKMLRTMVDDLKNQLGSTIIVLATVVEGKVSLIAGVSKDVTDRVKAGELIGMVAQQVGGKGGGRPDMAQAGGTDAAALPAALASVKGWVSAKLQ

Sequence of Isoleucine--tRNA ligase (Escherichia coli) (P00956 whole entry, looked up): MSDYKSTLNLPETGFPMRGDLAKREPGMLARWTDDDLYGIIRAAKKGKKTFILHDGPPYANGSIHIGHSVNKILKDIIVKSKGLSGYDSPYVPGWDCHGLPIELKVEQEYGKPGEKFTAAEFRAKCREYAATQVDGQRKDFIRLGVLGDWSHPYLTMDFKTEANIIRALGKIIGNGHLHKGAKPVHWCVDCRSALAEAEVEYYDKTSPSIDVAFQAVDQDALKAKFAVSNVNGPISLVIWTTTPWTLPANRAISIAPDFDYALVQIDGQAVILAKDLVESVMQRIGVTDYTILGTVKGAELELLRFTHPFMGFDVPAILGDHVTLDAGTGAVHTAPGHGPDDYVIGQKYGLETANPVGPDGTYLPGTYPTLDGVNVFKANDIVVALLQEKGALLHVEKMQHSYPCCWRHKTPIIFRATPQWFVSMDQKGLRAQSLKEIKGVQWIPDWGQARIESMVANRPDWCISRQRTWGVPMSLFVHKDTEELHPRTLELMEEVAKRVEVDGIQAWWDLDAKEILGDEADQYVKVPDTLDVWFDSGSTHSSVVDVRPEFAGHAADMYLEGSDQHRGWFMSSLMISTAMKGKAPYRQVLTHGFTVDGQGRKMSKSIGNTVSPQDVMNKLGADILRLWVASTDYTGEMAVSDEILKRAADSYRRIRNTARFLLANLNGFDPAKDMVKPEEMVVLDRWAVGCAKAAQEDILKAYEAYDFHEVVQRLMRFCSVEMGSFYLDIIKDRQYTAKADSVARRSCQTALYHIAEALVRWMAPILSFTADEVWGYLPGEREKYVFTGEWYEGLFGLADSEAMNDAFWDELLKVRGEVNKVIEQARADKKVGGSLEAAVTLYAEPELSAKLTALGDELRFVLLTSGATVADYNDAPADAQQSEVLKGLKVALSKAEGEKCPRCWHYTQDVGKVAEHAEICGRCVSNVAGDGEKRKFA
Sequence of Leucine--tRNA ligase (Escherichia coli) (P07813 whole entry, looked up): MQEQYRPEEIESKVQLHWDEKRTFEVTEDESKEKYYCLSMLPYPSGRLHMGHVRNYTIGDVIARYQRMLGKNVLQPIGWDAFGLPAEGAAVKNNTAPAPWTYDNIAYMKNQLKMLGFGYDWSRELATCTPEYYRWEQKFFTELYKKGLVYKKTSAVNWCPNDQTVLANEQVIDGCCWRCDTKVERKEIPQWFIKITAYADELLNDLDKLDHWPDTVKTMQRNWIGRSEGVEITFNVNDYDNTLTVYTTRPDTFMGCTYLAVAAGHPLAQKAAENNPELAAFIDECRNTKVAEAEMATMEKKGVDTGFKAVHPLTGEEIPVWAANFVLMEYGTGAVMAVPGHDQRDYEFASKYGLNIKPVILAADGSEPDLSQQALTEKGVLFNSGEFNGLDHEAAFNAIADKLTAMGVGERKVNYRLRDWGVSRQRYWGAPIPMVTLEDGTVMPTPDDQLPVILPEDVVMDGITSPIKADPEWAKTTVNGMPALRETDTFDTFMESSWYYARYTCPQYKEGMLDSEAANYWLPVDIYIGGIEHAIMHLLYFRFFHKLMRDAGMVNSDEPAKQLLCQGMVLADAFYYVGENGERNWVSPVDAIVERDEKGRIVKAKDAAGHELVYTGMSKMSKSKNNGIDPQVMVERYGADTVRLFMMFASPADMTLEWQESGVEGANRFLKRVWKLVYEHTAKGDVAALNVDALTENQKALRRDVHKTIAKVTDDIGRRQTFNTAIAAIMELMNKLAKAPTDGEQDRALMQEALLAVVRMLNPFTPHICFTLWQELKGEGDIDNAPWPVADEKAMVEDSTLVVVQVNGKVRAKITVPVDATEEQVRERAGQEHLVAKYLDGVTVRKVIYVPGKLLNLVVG

Row | SMILES | IC50 [1] [nM] | IC50 [2] [nM] | IC50 [3] [nM]
1 | CCC(C)[C@H](N)C(=O)NS(=O)(=O)OC[C@H]1O[C@@H](c2nc(-c3ccc(Oc4ccccc4)cc3)cs2)[C@H](O)[C@@H]1O (stereo partly drawn) [((S)-2-Amino-3-methyl-pentanoyl)-sulfamic acid (2R,3S,4R,5R)-3,4-dihydroxy-5-[4-(4-phenoxy-phenyl)-thiazol-2-yl]-tetrahydro-furan-2-ylmethyl ester] | 45 |  | 
2 | CCC(C)[C@H](N)C(=O)NS(=O)(=O)OC[C@H]1O[C@@H](c2nc(-c3ccc(OC)cc3)cs2)[C@H](O)[C@@H]1O (stereo partly drawn) [((S)-2-Amino-3-methyl-pentanoyl)-sulfamic acid (2R,3S,4R,5R)-3,4-dihydroxy-5-[4-(4-methoxy-phenyl)-thiazol-2-yl]-tetrahydro-furan-2-ylmethyl ester] | 100 |  | 
3 | CC(C)C[C@H](N)C(=O)NS(=O)(=O)OC[C@H]1O[C@@H](c2nc(CCc3ccc(Oc4ccccc4)cc3)cs2)[C@H](O)[C@@H]1O [((S)-2-Amino-4-methyl-pentanoyl)-sulfamic acid (2R,3S,4R,5R)-3,4-dihydroxy-5-{4-[2-(4-phenoxy-phenyl)-ethyl]-thiazol-2-yl}-tetrahydro-furan-2-ylmethyl ester] |  | 6 | 
4 | CC(C)C[C@H](N)C(=O)NS(=O)(=O)OC[C@H]1O[C@@H](c2nc(-c3ccc(Oc4ccccc4)cc3)cs2)[C@H](O)[C@@H]1O [((S)-2-Amino-4-methyl-pentanoyl)-sulfamic acid (2R,3S,4R,5R)-3,4-dihydroxy-5-[4-(4-phenoxy-phenyl)-thiazol-2-yl]-tetrahydro-furan-2-ylmethyl ester] |  | 1.6 | 
5 | C[C@H](N)C(=O)NS(=O)(=O)OC[C@H]1O[C@@H](c2nc(-c3ccccc3)cs2)[C@H](O)[C@@H]1O [((S)-2-Amino-propionyl)-sulfamic acid (2R,3S,4R,5R)-3,4-dihydroxy-5-(4-phenyl-thiazol-2-yl)-tetrahydro-furan-2-ylmethyl ester] | 100000 | > 100000 | > 100000
6 | CC(C)C[C@H](N)C(=O)NS(=O)(=O)OC[C@H]1O[C@@H](c2nc(CCc3ccccc3)cs2)[C@H](O)[C@@H]1O [((S)-2-Amino-4-methyl-pentanoyl)-sulfamic acid (2R,3S,4R,5R)-3,4-dihydroxy-5-(4-phenethyl-thiazol-2-yl)-tetrahydro-furan-2-ylmethyl ester] |  | < 2 | 
7 | N[C@@H](Cc1ccccc1)C(=O)NS(=O)(=O)OC[C@H]1O[C@@H](c2nc(-c3ccccc3)cs2)[C@H](O)[C@@H]1O [((S)-2-Amino-3-phenyl-propionyl)-sulfamic acid (2R,3S,4R,5R)-3,4-dihydroxy-5-(4-phenyl-thiazol-2-yl)-tetrahydro-furan-2-ylmethyl ester] | > 100000 | > 100000 | > 100000
8 | CC[C@H](C)[C@H](N)C(=O)NS(=O)(=O)OC[C@H]1O[C@@H](c2nc(-c3ccccc3)cs2)[C@H](O)[C@@H]1O [((2S,3S)-2-Amino-3-methyl-pentanoyl)-sulfamic acid (2R,3S,4R,5R)-3,4-dihydroxy-5-(4-phenyl-thiazol-2-yl)-tetrahydro-furan-2-ylmethyl ester] | 100 |  | > 100000
9 | N[C@@H](Cc1cnc[nH]1)C(=O)NS(=O)(=O)OC[C@H]1O[C@@H](c2nc(-c3ccccc3)cs2)[C@H](O)[C@@H]1O [[(S)-2-Amino-3-(3H-imidazol-4-yl)-propionyl]-sulfamic acid (2R,3S,4R,5R)-3,4-dihydroxy-5-(4-phenyl-thiazol-2-yl)-tetrahydro-furan-2-ylmethyl ester] | > 100000 | > 100000 | > 100000
10 | CCC(C)[C@H](N)C(=O)NS(=O)(=O)OC[C@H]1O[C@@H](c2nc(-c3ccc4cc(OC)ccc4c3)cs2)[C@H](O)[C@@H]1O (stereo partly drawn) [((S)-2-Amino-3-methyl-pentanoyl)-sulfamic acid (2R,3S,4R,5R)-3,4-dihydroxy-5-[4-(6-methoxy-naphthalen-2-yl)-thiazol-2-yl]-tetrahydro-furan-2-ylmethyl ester] | 20 |  | 
11 | CCC(C)[C@H](N)C(=O)NS(=O)(=O)OC[C@H]1O[C@@H](c2nc(-c3ccccc3OC)cs2)[C@H](O)[C@@H]1O (stereo partly drawn) [((S)-2-Amino-3-methyl-pentanoyl)-sulfamic acid (2R,3S,4R,5R)-3,4-dihydroxy-5-[4-(2-methoxy-phenyl)-thiazol-2-yl]-tetrahydro-furan-2-ylmethyl ester] | 30 |  | 
12 | CCC(C)[C@H](N)C(=O)NS(=O)(=O)OC[C@H]1O[C@@H](c2nc(CCc3ccccc3)cs2)[C@H](O)[C@@H]1O (stereo partly drawn) [((S)-2-Amino-3-methyl-pentanoyl)-sulfamic acid (2R,3S,4R,5R)-3,4-dihydroxy-5-(4-phenethyl-thiazol-2-yl)-tetrahydro-furan-2-ylmethyl ester] | 30 |  | 
13 | CCC(C)[C@H](N)C(=O)NS(=O)(=O)OC[C@H]1O[C@@H](c2nc(CCc3ccc(Oc4ccccc4)cc3)cs2)[C@H](O)[C@@H]1O (stereo partly drawn) [((S)-2-Amino-3-methyl-pentanoyl)-sulfamic acid (2R,3S,4R,5R)-3,4-dihydroxy-5-{4-[2-(4-phenoxy-phenyl)-ethyl]-thiazol-2-yl}-tetrahydro-furan-2-ylmethyl ester] | 110 |  | 
14 | CC(C)[C@H](N)C(=O)NS(=O)(=O)OC[C@H]1O[C@@H](c2nc(-c3ccccc3)cs2)[C@H](O)[C@@H]1O [((S)-2-Amino-3-methyl-butyryl)-sulfamic acid (2R,3S,4R,5R)-3,4-dihydroxy-5-(4-phenyl-thiazol-2-yl)-tetrahydro-furan-2-ylmethyl ester] | 15000 | 14000 | > 100000
15 | CCC(C)[C@H](N)C(=O)NS(=O)(=O)OC[C@H]1O[C@@H](c2nc(-c3cccc(OC)c3)cs2)[C@H](O)[C@@H]1O (stereo partly drawn) [((S)-2-Amino-3-methyl-pentanoyl)-sulfamic acid (2R,3S,4R,5R)-3,4-dihydroxy-5-[4-(3-methoxy-phenyl)-thiazol-2-yl]-tetrahydro-furan-2-ylmethyl ester] | 15 |  | 
